# Patent US20210388015A1, “GLUCOPYRANOSE DERIVATIVES USEFUL AS SGLT2 INHIBITORS” (Janssen Pharmaceutica NV, priority 2018, published 2021)
# Where a name gives a salt, the structure may show the parent alone.
# Molecular target: T1, human SGLT1 (Homo sapiens, UniProt P13866)
# T1 construct: expressed in transfected cells; host or cells: CHO-K1
# T1 sequence (P13866 1-664): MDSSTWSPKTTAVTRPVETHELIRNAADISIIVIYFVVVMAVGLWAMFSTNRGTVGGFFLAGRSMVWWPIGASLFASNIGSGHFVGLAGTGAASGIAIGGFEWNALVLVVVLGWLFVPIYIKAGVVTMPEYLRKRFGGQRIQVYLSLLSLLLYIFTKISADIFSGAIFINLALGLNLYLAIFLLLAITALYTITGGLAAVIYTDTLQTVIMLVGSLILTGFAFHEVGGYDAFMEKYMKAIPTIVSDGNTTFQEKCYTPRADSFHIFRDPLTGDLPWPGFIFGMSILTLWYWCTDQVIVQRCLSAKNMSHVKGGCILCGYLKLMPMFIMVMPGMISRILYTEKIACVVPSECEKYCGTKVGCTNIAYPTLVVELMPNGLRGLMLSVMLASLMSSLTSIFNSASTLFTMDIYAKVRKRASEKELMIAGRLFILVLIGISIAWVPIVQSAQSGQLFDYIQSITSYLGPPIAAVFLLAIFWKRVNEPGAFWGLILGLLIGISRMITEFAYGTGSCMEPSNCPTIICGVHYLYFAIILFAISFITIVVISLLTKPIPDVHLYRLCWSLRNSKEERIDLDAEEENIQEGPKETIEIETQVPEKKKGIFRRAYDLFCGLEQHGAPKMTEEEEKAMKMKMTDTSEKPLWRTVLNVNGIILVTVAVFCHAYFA
# Assay: SGLT1 inhibition assay, 14C-AMG uptake in CHO-K1 cells stably expressing human SGLT1
# Assay type: cell-based
# Details: CHO-K1, CHO-K1 cells, 1 μM test compound; read-out: CHO-K1 Cells SGLT1 % Inh @1 μM
# Procedure: (§1) The cells were incubated for 24 hours. […] Plates were counted in a TopCount (Packard, Meriden, Conn.). Each experiment was repeated at least twice.
# (§2) Results are reported as the %-inhibition or IC50 value.
row,inhibition at 1 µM,Structure (SMILES)
1,17.5%,C[N+]1(CCOCCOc2ccc(Cc3cc([C@@H]4O[C@H](CO)[C@@H](O)[C@H](O)[C@H]4O)ccc3Cl)cc2)CCCC1 [Compound 7]
2,43.1%,"C[N+]1(CCCCCOc2ccc(Cc3cc([C@@H]4O[C@H](CO)[C@@H](O)[C@H](O)[C@H]4O)ccc3Cl)cc2)CCCC1 [Compound 6, 1-(5-(4-(2-chloro-5-((2S,3R,4R,5S,6R)-3,4,5-trihydroxy-6-(hydroxymethyl)tetrahydro-2H-pyran-2-yl)benzyl)phenoxy)pentyl)-1-methylpyrrolidin-1-ium trifluoroacetate]"
3,14.5%,COCCOCCOCCOCCOc1ccc(Cc2cc([C@@H]3O[C@H](CO)[C@@H](O)[C@H](O)[C@H]3O)ccc2Cl)cc1 [Compound 1]
4,20%,"O=S(=O)(O)CCCOc1ccc(Cc2cc([C@@H]3O[C@H](CO)[C@@H](O)[C@H](O)[C@H]3O)ccc2Cl)cc1 [Compound 2, 3-(4-(2-chloro-5-((2S,3R,4R,5S,6R)-3,4,5-trihydroxy-6-(hydroxymethyl)tetrahydro-2H-pyran-2-yl)benzyl)phenoxy)propane-1-sulfonic acid]"

# Same assay, conditions: CHO-K1, read-out: CHO-K1 Cells SGLT1 % Inh @1 μM
row,Structure (SMILES),inhibition at 1 µM
1,"OC[C@H]1O[C@@H](c2ccc(Cl)c(Cc3ccc(OCc4ccc(COc5ccc(Cc6cc([C@@H]7O[C@H](CO)[C@@H](O)[C@H](O)[C@H]7O)ccc6Cl)cc5)nc4)cc3)c2)[C@H](O)[C@@H](O)[C@@H]1O [Compound 14, (2R,2′R,3S,3′S,4R,4′R,5R,5′R,6S,6′S)-6,6′-(((((pyridine-2,5-diylbis(methylene))bis(oxy))bis(4,1-phenylene))bis(methylene))bis(4-chloro-3,1-phenylene))bis(2-(hydroxymethyl)tetrahydro-2H-pyran-3,4,5-triol) trifluoroacetate]",19%

# Same assay, conditions: CHO-K1 cells; IC50 printed in the % Inh column
row,IC50,Structure (SMILES)
1,1490 nM,"OC[C@H]1O[C@@H](c2ccc(Cl)c(Cc3ccc(OCCOCCOc4ccc(Cc5cc([C@@H]6O[C@H](CO)[C@@H](O)[C@H](O)[C@H]6O)ccc5Cl)cc4)cc3)c2)[C@H](O)[C@@H](O)[C@@H]1O [Compound 10, (2R,2′R,3S,3′S,4R,4′R,5R,5′R,6S,6′S)-6,6′-(((((oxybis(ethane-2,1-diyl))bis(oxy))bis(4,1-phenylene))bis(methylene))bis(4-chloro-3,1-phenylene))bis(2-(hydroxymethyl)tetrahydro-2H-pyran-3,4,5-triol)]"

# Molecular target: T2, human SGLT2 (Homo sapiens, UniProt P31639)
# T2 construct: expressed in transfected cells; host or cells: CHO-K1
# T2 sequence (P31639 1-672): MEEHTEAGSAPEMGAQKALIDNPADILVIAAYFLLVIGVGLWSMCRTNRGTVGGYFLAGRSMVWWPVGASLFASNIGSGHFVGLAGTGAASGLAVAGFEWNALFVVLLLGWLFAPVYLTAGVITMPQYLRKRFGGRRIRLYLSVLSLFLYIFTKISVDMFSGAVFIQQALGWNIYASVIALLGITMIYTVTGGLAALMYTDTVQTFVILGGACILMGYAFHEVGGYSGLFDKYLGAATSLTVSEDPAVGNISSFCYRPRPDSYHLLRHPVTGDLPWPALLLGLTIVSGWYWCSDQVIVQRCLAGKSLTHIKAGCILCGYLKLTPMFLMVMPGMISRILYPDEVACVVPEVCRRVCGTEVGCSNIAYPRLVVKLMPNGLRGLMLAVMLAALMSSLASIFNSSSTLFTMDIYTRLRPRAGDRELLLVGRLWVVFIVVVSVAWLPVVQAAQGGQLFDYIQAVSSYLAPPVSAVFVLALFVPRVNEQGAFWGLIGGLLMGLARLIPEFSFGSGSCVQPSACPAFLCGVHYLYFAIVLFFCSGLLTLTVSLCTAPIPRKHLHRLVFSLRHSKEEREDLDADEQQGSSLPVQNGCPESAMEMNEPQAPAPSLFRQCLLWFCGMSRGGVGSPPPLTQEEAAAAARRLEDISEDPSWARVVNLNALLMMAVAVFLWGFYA
# Assay: SGLT2 inhibition assay, 14C-AMG uptake in CHO-K1 cells stably expressing human SGLT2
# Assay type: cell-based
# Details: not given
# Procedure: as §1, §2
row,IC50,Structure (SMILES)
1,24 nM,"C[N+](C)(CCCc1ccc(-c2ccc(Cc3cc([C@@H]4O[C@H](CO)[C@@H](O)[C@H](O)[C@H]4O)ccc3Cl)s2)cc1)CCOc1ccc(-c2ccc(Cc3cc([C@@H]4O[C@H](CO)[C@@H](O)[C@H](O)[C@H]4O)ccc3Cl)s2)cc1 [Compound 19, N-(2-(4-(5-(2-chloro-5-((2S,3R,4R,5S,6R)-3,4,5-trihydroxy-6-(hydroxymethyl)tetrahydro-2H-pyran-2-yl)benzyl)thiophen-2-yl)phenoxy)ethyl)-3-(4-(5-(2-chloro-5-((2S,3R,4R,5S,6R)-3,4,5-trihydroxy-6-(hydroxymethyl)tetrahydro-2H-pyran-2-yl)benzyl)thiophen-2-yl)phenyl)-N,N-dimethylpropan-1-aminium trifluoroacetate]"
2,7.6 nM,"OC[C@H]1O[C@@H](c2ccc(Cl)c(Cc3ccc(OCCOCCOc4ccc(Cc5cc([C@@H]6O[C@H](CO)[C@@H](O)[C@H](O)[C@H]6O)ccc5Cl)cc4)cc3)c2)[C@H](O)[C@@H](O)[C@@H]1O [Compound 10, (2R,2′R,3S,3′S,4R,4′R,5R,5′R,6S,6′S)-6,6′-(((((oxybis(ethane-2,1-diyl))bis(oxy))bis(4,1-phenylene))bis(methylene))bis(4-chloro-3,1-phenylene))bis(2-(hydroxymethyl)tetrahydro-2H-pyran-3,4,5-triol)]"
3,32 nM,OC[C@H]1O[C@@H](c2ccc(Cl)c(Cc3ccc(OCc4ccc(COc5ccc(Cc6cc([C@@H]7O[C@H](CO)[C@@H](O)[C@H](O)[C@H]7O)ccc6Cl)cc5)cc4)cc3)c2)[C@H](O)[C@@H](O)[C@@H]1O [Compound 13]
4,9.6 nM,OC[C@H]1O[C@@H](c2ccc(Cl)c(Cc3ccc(OCCOCCOCCOCCOc4ccc(Cc5cc([C@@H]6O[C@H](CO)[C@@H](O)[C@H](O)[C@H]6O)ccc5Cl)cc4)cc3)c2)[C@H](O)[C@@H](O)[C@@H]1O [Compound 12]
5,377 nM,O=C(O)C(CCC(Oc1ccc(Cc2cc([C@@H]3O[C@H](CO)[C@@H](O)[C@H](O)[C@H]3O)ccc2Cl)cc1)C(=O)O)Oc1ccc(Cc2cc([C@@H]3O[C@H](CO)[C@@H](O)[C@H](O)[C@H]3O)ccc2Cl)cc1 (mixture of isomers) [Compound 18]
6,121 nM,"C[N+](C)(CCOc1ccc(Cc2cc([C@@H]3O[C@H](CO)[C@@H](O)[C@H](O)[C@H]3O)ccc2Cl)cc1)CCOc1ccc(Cc2cc([C@@H]3O[C@H](CO)[C@@H](O)[C@H](O)[C@H]3O)ccc2Cl)cc1 [Compound 15, trifluoroacetate]"
7,20.8 nM,OC[C@H]1O[C@@H](c2ccc(Cl)c(Cc3ccc(OCCOCCOCCOc4ccc(Cc5cc([C@@H]6O[C@H](CO)[C@@H](O)[C@H](O)[C@H]6O)ccc5Cl)cc4)cc3)c2)[C@H](O)[C@@H](O)[C@@H]1O [Compound 11]

# Further lines, the compound ahead of its results:
row,Structure (SMILES),IC50
1,"C[N+]1(Cc2ccc(COc3ccc(Cc4cc([C@@H]5O[C@H](CO)[C@@H](O)[C@H](O)[C@H]5O)ccc4Cl)cc3)cc2)CCC(C2CC[N+](C)(Cc3ccc(COc4ccc(Cc5cc([C@@H]6O[C@H](CO)[C@@H](O)[C@H](O)[C@H]6O)ccc5Cl)cc4)cc3)CC2)CC1 (stereo partly drawn) [Compound 16, 1,1′-bis(4-((4-(2-chloro-5-((2S,3R,4R,5S,6R)-3,4,5-trihydroxy-6-(hydroxymethyl)tetrahydro-2H-pyran-2-yl)benzyl)phenoxy)methyl)benzyl)-1,1′-dimethyl-[4,4′-bipiperidine]-1,1′-diium trifluoroacetate]",4 nM
2,"OC[C@H]1O[C@H](c2ccc(Cl)c(Cc3ccc(OCc4cc(COc5ccc(Cc6cc([C@@H]7O[C@H](CO)[C@@H](O)[C@H](O)[C@H]7O)ccc6Cl)cc5)c(COc5ccc(Cc6cc([C@@H]7O[C@H](CO)[C@@H](O)[C@H](O)[C@H]7O)ccc6Cl)cc5)cc4COc4ccc(Cc5cc([C@@H]6O[C@H](CO)[C@@H](O)[C@H](O)[C@H]6O)ccc5Cl)cc4)cc3)c2)[C@H](O)[C@@H](O)[C@@H]1O [(III), (2R,2′R,2″R,3S,3′S,3″S,4R,4′R,4″R,5R,5′R,5″R,6S,6′S,6″S)-6,6′,6″-((((((5-((4-(2-chloro-5-((2R,3R,4R,5S,6R)-3,4,5-trihydroxy-6-(hydroxymethyl)tetrahydro-2H-pyran-2-yl)benzyl)phenoxy)methyl)benzene-1,2,4-triyl)tris(methylene))tris(oxy))tris(benzene-4,1-diyl))tris(methylene))tris(4-chlorobenzene-3,1-diyl))tris(2-(hydroxymethyl)tetrahydro-2H-pyran-3,4,5-triol)]",33 nM
3,"OC[C@H]1O[C@@H](c2ccc(Cl)c(Cc3ccc(OCc4ccc(COc5ccc(Cc6cc([C@@H]7O[C@H](CO)[C@@H](O)[C@H](O)[C@H]7O)ccc6Cl)cc5)nc4)cc3)c2)[C@H](O)[C@@H](O)[C@@H]1O [Compound 14, (2R,2′R,3S,3′S,4R,4′R,5R,5′R,6S,6′S)-6,6′-(((((pyridine-2,5-diylbis(methylene))bis(oxy))bis(4,1-phenylene))bis(methylene))bis(4-chloro-3,1-phenylene))bis(2-(hydroxymethyl)tetrahydro-2H-pyran-3,4,5-triol) trifluoroacetate]",4.8 nM
4,"C[N+]1(Cc2ccc(COc3ccc(Cc4cc([C@@H]5O[C@H](CO)[C@@H](O)[C@H](O)[C@H]5O)ccc4Cl)cc3)cc2)CCC(CCC2CC[N+](C)(Cc3ccc(COc4ccc(Cc5cc([C@@H]6O[C@H](CO)[C@@H](O)[C@H](O)[C@H]6O)ccc5Cl)cc4)cc3)CC2)CC1 (stereo partly drawn) [Compound 17, 4,4′-(ethane-1,2-diyl)bis(1-(4-((4-(2-chloro-5-((2S,3R,4R,5S,6R)-3,4,5-trihydroxy-6-(hydroxymethyl)tetrahydro-2H-pyran-2-yl)benzyl)phenoxy)methyl)benzyl)-1-methylpiperidin-1-ium) trifluoroacetate]",5 nM
